Reference: patent US12331026B2 (NiKang Therapeutics, Inc., priority 2022, dated 2025)

Target: T1, CDK2 (Homo sapiens, UniProt P24941)
T1 construct: endogenous in cells; host or cells: OVCAR3 cells
Test: Phospho-RB measurement in OVCAR3 cells (HTRF phospho-RB S807/811)
Assay type: cell-based
Details: phosphorylation of RB protein at S807/811, HTRF, 24 h compound treatment, 0.3 to 10,000 nM, read-out: pRb (uM)
In short: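 IC50 values come from four-parameter logistic fits of the DMSO-normalised 665/620 nm TR-FRET ratio for phospho-RB (S807/811). Antibody detection ran 4 h at room temperature.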

For `C[C@H]1COC[C@H](C)N1c1nc(-c2cccc(NS(=O)(=O)c3c(F)cccc3C(F)(F)F)c2F)c(-c2ccnc(N[C@H]3[C@@H]4CS(=O)(=O)C[C@@H]43)n2)s1` [Example 114, N-(3-(2-((3S,5S)-3,5-dimethylmorpholino)-5-(2-(((1R,5S,6r)-3,3-dioxido-3-thiabicyclo[3.1.0]hexan-6-yl)amino)pyrimidin-4-yl)thiazol-4-yl)-2-fluorophenyl)-2-fluoro-6-(trifluoromethyl)benzenesulfonamide], which IC50 is on record?
Its IC50 is 0.3 µM.

For `O=S1(=O)CC2(CC(Nc3nccc(-c4sc(N5C6CCC5CN(c5ccccn5)C6)nc4-c4cccc(NS(=O)(=O)c5c(F)cccc5F)c4F)n3)C2)C1` [Example 43, N-(3-(5-(2-((2,2-dioxido-2-thiaspiro[3.3]heptan-6-yl)amino)-pyrimidin-4-yl)-2-(3-(pyridin-2-yl)-3,8-diazabicyclo[3.2.1]octan-8-yl)thiazol-4-yl)-2-fluorophenyl)-2,6-difluorobenzenesulfonamide], which IC50 is on record?
The IC50 was 0.46 µM.

With `CS(=O)(=O)C1CCC(Nc2nccc(-c3sc(C45CC(C(F)(F)F)(C4)C5)nc3-c3cccc(NS(=O)(=O)c4c(Cl)cccc4C(F)(F)F)c3F)n2)CC1` (stereo not drawn) [Example 118, 2-chloro-N-(2-fluoro-3-(5-(2-(((1s,4s)-4-(methylsulfonyl)-cyclohexyl)amino)pyrimidin-4-yl)-2-(3-(trifluoromethyl)bicyclo-[1.1.1]pentan-1-yl)thiazol-4-yl)phenyl)-6-(trifluoromethyl)-benzenesulfonamide] as the compound, how does the IC50 read?
The IC50 was 0.73 µM.

Which IC50 does the source give for `O=S1(=O)C[C@@H]2[C@H](C1)[C@H]2Nc1nccc(-c2sc(C34CCC(CC3)C4)nc2-c2cccc(NS(=O)(=O)c3c(F)cccc3F)c2F)n1` [Example 99, N-(3-(2-(bicyclo[2.2.1]heptan-1-yl)-5-(2-(((1R,5S,6r)-3,3-dioxido-3-thiabicyclo[3.1.0]hexan-6-yl)amino)pyrimidin-4-yl)thiazol-4-yl)-2-fluorophenyl)-2,6-difluorobenzenesulfonamide] here?
Its IC50 is 0.06 µM.

Which IC50 does the source give for `O=S1(=O)CC2(CC(Nc3nccc(-c4sc(N5C6CCC5CN(C5CCC(F)(F)CC5)C6)nc4-c4cccc(NS(=O)(=O)c5c(F)cccc5F)c4F)n3)C2)C1` [Example 147, N-(3-(2-(3-(4,4-difluorocyclohexyl)-3,8-diazabicyclo[3.2.1]octan-8-yl)-5-(2-((2,2-dioxido-2-thiaspiro[3.3]heptan-6-yl)amino)pyrimidin-4-yl)thiazol-4-yl)-2-fluorophenyl)-2,6-difluorobenzenesulfonamide] here?
Its IC50 is 0.91 µM.

Which IC50 does the source give for `O=S1(=O)CC2(CC(Nc3nccc(-c4sc(C5(C(F)F)CC5)nc4-c4cccc(NS(=O)(=O)c5c(F)cccc5F)c4F)n3)C2)C1` [Example 16, N-(3-(2-(1-(difluoromethyl)cyclopropyl)-5-(2-((2,2-dioxido-2-thiaspiro[3.3]heptan-6-yl)amino)pyrimidin-4-yl)thiazol-4-yl)-2-fluorophenyl)-2,6-difluorobenzenesulfonamide] here?
Its IC50 is 0.13 µM.

How did the IC50 turn out when `O=S1(=O)CC2(CC(Nc3nccc(-c4sc(N5C6CCC5CN(CC(F)(F)F)C6)nc4-c4cccc(NS(=O)(=O)c5c(F)cccc5F)c4F)n3)C2)C1` [Example 139, N-(3-(5-(2-((2,2-dioxido-2-thiaspiro[3.3]heptan-6-yl)amino)-pyrimidin-4-yl)-2-(3-(2,2,2-trifluoroethyl)-3,8-diazabicyclo-[3.2.1]octan-8-yl)thiazol-4-yl)-2-fluorophenyl)-2,6-difluoro-benzenesulfonamide] was run?
The IC50 was 0.13 µM.

For `O=S1(=O)CC2(CC(Nc3nccc(-c4sc(C56CCC(CC5)C6)nc4-c4cccc(NS(=O)(=O)c5c(F)cccc5F)c4F)n3)C2)C1` [Example 32, N-(3-(2-(bicyclo[2.2.1]heptan-1-yl)-5-(2-((2,2-dioxido-2-thiaspiro[3.3]heptan-6-yl)amino)pyrimidin-4-yl)thiazol-4-yl)-2-fluorophenyl)-2,6-difluorobenzenesulfonamide], which IC50 is on record?
Its IC50 is 0.08 µM.

With `O=S1(=O)CC2(CC(Nc3nccc(-c4sc(C56CC(F)(C5)C6)nc4-c4cccc(NS(=O)(=O)c5c(F)cccc5C(F)(F)F)c4F)n3)C2)C1` [Example 86, N-(3-(5-(2-((2,2-dioxido-2-thiaspiro[3.3]heptan-6-yl)amino)-pyrimidin-4-yl)-2-(3-fluorobicyclo[1.1.1]pentan-1-yl)thiazol-4-yl)-2-fluorophenyl)-2-fluoro-6-(trifluoromethyl)benzenesulfonamide] as the compound, how does the IC50 read?
The IC50 was 0.04 µM.

How did the IC50 turn out when `O=S1(=O)CC2(CC(Nc3nccc(-c4sc(N5C6CCCC5CC6)nc4-c4cccc(NS(=O)(=O)c5c(F)cccc5F)c4F)n3)C2)C1` [Example 19, N-(3-(2-(8-azabicyclo[3.2.1]octan-8-yl)-5-(2-((2,2-dioxido-2-thiaspiro[3.3]heptan-6-yl)amino)pyrimidin-4-yl)thiazol-4-yl)-2-fluorophenyl)-2,6-difluorobenzenesulfonamide] was run?
The IC50 was 0.19 µM.

With `C[C@H]1COC[C@H](C)N1c1nc(-c2cccc(NS(=O)(=O)c3c(F)cccc3C(F)(F)F)c2F)c(-c2ccnc(NC3CC4(C3)CS(=O)(=O)C4)n2)s1` [Example 79, N-(3-(2-((3S,5S)-3,5-dimethylmorpholino)-5-(2-((2,2-dioxido-2-thiaspiro[3.3]heptan-6-yl)amino)pyrimidin-4-yl)thiazol-4-yl)-2-fluorophenyl)-2-fluoro-6-(trifluoromethyl)benzenesulfonamide] as the compound, how does the IC50 read?
Its IC50 is 0.06 µM.

How did the IC50 turn out when `C[C@H]1COC[C@H](C)N1c1nc(-c2cccc(NS(=O)(=O)c3c(F)cccc3F)c2F)c(-c2ccnc(N[C@H]3[C@@H]4CS(=O)(=O)C[C@@H]43)n2)s1` [Example 101, N-(3-(2-((3S,5S)-3,5-dimethylmorpholino)-5-(2-(((1R,5S,6r)-3,3-dioxido-3-thiabicyclo[3.1.0]hexan-6-yl)amino)pyrimidin-4-yl)thiazol-4-yl)-2-fluorophenyl)-2,6-difluorobenzenesulfonamide] was run?
Its IC50 is 0.17 µM.

`O=S1(=O)CC2(CC(Nc3nccc(-c4sc(C56CC(C5)C6)nc4-c4cccc(NS(=O)(=O)c5c(F)cccc5C(F)(F)F)c4F)n3)C2)C1` [Example 26, N-(3-(2-(bicyclo[1.1.1]pentan-1-yl)-5-(2-((2,2-dioxido-2-thiaspiro[3.3]heptan-6-yl)amino)pyrimidin-4-yl)thiazol-4-yl)-2-fluorophenyl)-2-fluoro-6-(trifluoromethyl)benzenesulfonamide] was tested. Which IC50 did it give?
Its IC50 is 0.016 µM.

With `C[C@H]1COC[C@H](C)N1c1nc(-c2cccc(NS(=O)(=O)c3c(F)cccc3F)c2F)c(-c2ccnc(NC3CC4(C3)CS(=O)(=O)C4)n2)s1` [Example 4, N-(3-(2-((3S,5S)-3,5-dimethylmorpholino)-5-(2-((2,2-dioxido-2-thiaspiro[3.3]heptan-6-yl)amino)pyrimidin-4-yl)thiazol-4-yl)-2-fluorophenyl)-2,6-difluorobenzenesulfonamide] as the compound, how does the IC50 read?
Its IC50 is 0.13 µM.

For `O=S1(=O)CC2(CC(Nc3nccc(-c4sc(C5(C(F)(F)F)CC5)nc4-c4cccc(NS(=O)(=O)c5c(F)cccc5C(F)(F)F)c4F)n3)C2)C1` [Example 85, N-(3-(5-(2-((2,2-dioxido-2-thiaspiro[3.3]heptan-6-yl)amino)-pyrimidin-4-yl)-2-(1-(trifluoromethyl)cyclopropyl)thiazol-4-yl)-2-fluorophenyl)-2-fluoro-6-(trifluoromethyl)benzenesulfonamide], which IC50 is on record?
Its IC50 is 0.03 µM.
